These are literature values, as cited in article PMC9050719 (RSC Advances, 2020).

The conditions of data set [1]: prodrug of MPA.

As to `COc1c(C)c2c(c(O)c1C/C=C(\C)CCC(=O)O)C(=O)OC2` [MPA, Mycophenolic acid], the “Administered dose giving profound toxicity in mice” value in the data set on mice is on record as “over 1000 mg per kg per day”.

On to `COc1c(C)c2c(c(O)c1C/C=C(\C)CCC(=O)OCCN1CCOCC1)C(=O)OC2` [Mycophenolate mofetil], for which the Bioavailability in data set [1] is around 90%.
